Assay results published in US20260184669A1, “LIPID COMPOUND AND COMPOSITION FOR DELIVERY OF ACTIVE SUBSTANCE” (KOREA RESEARCH INSTIUTE OF BIOSCIENCE AND BIOTECHNOLOGY, priority 2022, published 2026).

What was measured:
[1] = Size, polydispersity index and surface charge of mRNA-LNP (Malvern Zetasizer Nano ZS90); type: physicochemical; conditions: for PDI / size (nm) Number: mRNA-LNP made with the ionizable lipid at its optimal formulation (Table 2); for size (nm) Number: diluted with PBS to 1 μg/mL mRNA; for Zeta (mV): surface charge of mRNA-LNP made with the ionizable lipid at its optimal formulation (Table 2)
Method: Each mRNA-LNPs produced in Example 27 was diluted with PBS to a final mRNA concentration of 1 μg/mL. The size, polydispersity index (PDI), and surface charge of the mRNA-LNPs were then measured using a Malvern Zetasizer Nano ZS90 (Malvern Instruments, UK).
For particles intended for systemic administration, such as via blood vessels, the particle size must be less than 200 nm in order to pass through the endothelial capillaries of the liver. In addition, the size distribution is considered uniform only when the PDI is 0.3 or less, which enables consistent and efficient therapeutic effects (Non-patent document 3 [Danaei, M. et al). Pharmaceutics 2018, 10, 57]).

[2] = mRNA encapsulation efficiency (Quant-IT RiboGreen RNA assay); type: physicochemical; conditions: mRNA encapsulation efficiency of mRNA-LNP made with the ionizable lipid; average of two measurements
Method: The mRNA encapsulation efficiency (EE, %) of LNPs containing mRNA was measured using the Quant-IT™ RiboGreen® RNA assay kit (Invitrogen, USA).
The diluted samples were added to each well of a 96-well plate. Group A (without Triton X-100) was supplemented with 50 μL of 1×TE buffer, while Group B (with Triton X-100) was supplemented with 50 μL of 1×TE buffer containing 2% Triton-X 100. To release the encapsulated mRNA, the LNPs were treated with Triton-X 100 and incubated at 37° C. for 10 minutes. Subsequently, 100 μL of ribogreen reagent was added to each well. The fluorescence intensities of Group A and Group B were measured using a multi-plate reader (λex 480 nm, λem 520 nm), and mRNA encapsulation efficiency (%) was calculated using Equation 1 below. The encapsulation efficiency for each LNP was determined as the average of two independent measurements.

female C57BL/6 mice = assay: Protein expression efficiency of fLuc mRNA-LNPs after intramuscular injection (IVIS whole-body luminescence); type: in vivo; conditions: for Total flux 1 hour / Total flux 3 hours / Total flux 6 hours / Total flux 48 hours / Total flux 72 hours / Total flux: fLuc mRNA-LNP, intramuscular injection, luminescence at injection site, mice; for Total flux 1 hour: 1 hour after administration; for Total flux 3 hours: 3 hours after administration; for Total flux 6 hours: 6 hours after administration; for Total flux 48 hours: 48 hours after administration; for Total flux 72 hours: 72 hours after administration; for Total flux: after administration; for Fold increase in total flux at 3 h, MC3: relative to control LNP formulated with MC3; for Fold increase in total flux at 3 h, MC3 / Fold increase in total flux at 3 h, SM-102: 3 hours after intramuscular injection; for Fold increase in total flux at 3 h, SM-102: relative to control LNP formulated with SM-102
Method: fLuc mRNA-LNPs formulated using various ionizable lipids were prepared according to the method described in Example 27 and administered in vivo via intramuscular (I. M.) or intravenous (IV.) injection to compare the resulting protein expression efficiency in vivo. As a control, EGFP mRNA-LNPs formulated with commercially available ionizable lipids MC3 or SM-102 were used. All mRNA-LNPs were administered at equal mRNA doses per body weight across different concentration groups (n≥4).
Specifically, the dose of mRNA-LNPs was adjusted to 0.1-0.5 mg/kg of body weight, and the formulation was administered via I.M. or I.V. injection to female C57BL/6 mice (6-10 weeks old, Orient Bio, Korea) Subsequently, […], whole-body luminescence images were acquired using an in vivo imaging system (IVIS Lumina III, PerkinElmer, Walzam, MA, USA). To assess protein expression levels, 200 μL of D-luciferin (15 mg/mL) was administered via intraperitoneal (I.P.) injection 10 minutes prior to imaging. During image acquisition, the animals were anesthetized by inhalation of 3% isoflurane in 97% medical grade oxygen. In addition, the acquired luminescence images were quantitatively analyzed using imaging software (Living Image Software Version 4.4; PerkinElmer, USA).
After intramuscular injection of the fLuc mRNA-LNPs, the luminescence intensity at the injection site was measured over time.
Furthermore, the luminescence intensity at the injection site 3 hours after intramuscular injection was measured, and the relative protein expression efficiency was compared to that of control LNPs formulated with MC3 or SM-102.

[3] = Stability of mRNA-LNPs according to storage temperature and duration; type: physicochemical; conditions: for Normalized EE % D-1 / Size (nm) D-1 / PDI D-1: day 1; for Normalized EE % D-7 / PDI D-7 / Size (nm) D-7: day 7; for Normalized EE % D-30 / PDI D-30 / Size (nm) D-30: day 30
Method: Stability of fLuc mRNA-LNPs produced using various ionizable lipids according to the method of Example 27, was assessed by storing the LNPs at 4° C. and 25° C. At 1, 7, and 30 days post-manufacture, the size, PDI, and encapsulation efficiency (EE) of each mRNA-LNPs samples were measured using the methods described in Experimental Examples 2 and 3.

Structure (SMILES) | PDI [1] | size (nm) Number [1] | Zeta (mV) [1] | EE (%) [2] | Total flux 1 hour (female C57BL/6 mice) | Total flux 3 hours (female C57BL/6 mice) | Total flux 6 hours (female C57BL/6 mice) | Total flux 48 hours (female C57BL/6 mice) | Total flux 72 hours (female C57BL/6 mice) | Total flux (female C57BL/6 mice) | Fold increase in total flux at 3 h, MC3 (female C57BL/6 mice) | Fold increase in total flux at 3 h, SM-102 (female C57BL/6 mice) | Normalized EE % D-1 ([3]; fLuc mRNA-LNP stored at 4° C.) | Size (nm) D-1 ([3]; fLuc mRNA-LNP stored at 4° C.) | Normalized EE % D-7 ([3]; fLuc mRNA-LNP stored at 4° C.) | PDI D-7 ([3]; fLuc mRNA-LNP stored at 4° C.) | Size (nm) D-7 ([3]; fLuc mRNA-LNP stored at 4° C.) | Normalized EE % D-30 ([3]; fLuc mRNA-LNP stored at 4° C.) | PDI D-30 ([3]; fLuc mRNA-LNP stored at 4° C.) | Size (nm) D-30 ([3]; fLuc mRNA-LNP stored at 4° C.) | also measured
CCCCCCCCCCCOC(=O)CCCCCN(CCCCCCCC(=O)OC(CCCCCCCC)CCCCCCCC)CC(O)CCCCNC(=O)c1cccn1C (stereo not shown) [Compound 18, Heptadecan-9-yl 8-((2-hydroxy-6-(1-methyl-1H-pyrrole-2-carboxamido)hexyl) (6-oxo-6-(undecyloxy)hexyl)amino)octanoate] | 0.145 | 125 nm | −1.04 mV | 88% | 1.63E+06 | 7.75E+06 | 1.56E+07 | 1.54E+05 | 1.96E+05 | 1.70E+06 | 0.63 | 0.07 | 88.0% | 124.6 nm | 85.3% | 0.064 | 121.4 nm | 87.6% | 0.106 | 126.6 nm | Normalized EE % D-1 ([3]; fLuc mRNA-LNP stored at 25° C.): 88.0%; PDI D-1 ([3]; fLuc mRNA-LNP stored at 25° C.): 0.145; Size (nm) D-1 ([3]; fLuc mRNA-LNP stored at 25° C.): 124.6 nm; Normalized EE % D-7 ([3]; fLuc mRNA-LNP stored at 25° C.): 85.6%; PDI D-7 ([3]; fLuc mRNA-LNP stored at 25° C.): 0.016; Size (nm) D-7 ([3]; fLuc mRNA-LNP stored at 25° C.): 126.1 nm; Normalized EE % D-30 ([3]; fLuc mRNA-LNP stored at 25° C.): 87.0%; PDI D-30 ([3]; fLuc mRNA-LNP stored at 25° C.): 0.125; Size (nm) D-30 ([3]; fLuc mRNA-LNP stored at 25° C.): 127.5 nm
CCCCCCCCCCCOC(=O)CCCCCN(CCCCCCCC(=O)OC(CCCCCCCC)CCCCCCCC)CC(O)CCCCNC(=O)c1ncc[nH]1 (stereo not shown) [Compound 33, Heptadecan-9-yl 8-((2-hydroxy-6-(1H-imidazole-2-carboxamido)hexyl)(6-oxo-6-(undecyloxy)hexyl)amino)octanoate] | 0.145 | 113 nm | −8.94 mV | 90% | 1.80E+06 | 1.17E+07 | 1.26E+07 | 4.56E+05 | 4.96E+05 | 2.62E+06 | 0.94 | 0.10 | 90.0% | 112.8 nm | 83.3% | 0.079 | 120.3 nm | 89.3% | 0.113 | 115.6 nm | Normalized EE % D-1 ([3]; fLuc mRNA-LNP stored at 25° C.): 90.0%; PDI D-1 ([3]; fLuc mRNA-LNP stored at 25° C.): 0.145; Size (nm) D-1 ([3]; fLuc mRNA-LNP stored at 25° C.): 112.8 nm; Normalized EE % D-7 ([3]; fLuc mRNA-LNP stored at 25° C.): 82.1%; PDI D-7 ([3]; fLuc mRNA-LNP stored at 25° C.): 0.133; Size (nm) D-7 ([3]; fLuc mRNA-LNP stored at 25° C.): 122.9 nm; Normalized EE % D-30 ([3]; fLuc mRNA-LNP stored at 25° C.): 87.2%; PDI D-30 ([3]; fLuc mRNA-LNP stored at 25° C.): 0.113; Size (nm) D-30 ([3]; fLuc mRNA-LNP stored at 25° C.): 106.4 nm
CCCCCCCCCCCOC(=O)CCCCCN(CCCCCCCC(=O)OC(CCCCCCCC)CCCCCCCC)CC(O)CCCCNC(=O)c1c[nH]cn1 (stereo not shown) [Compound 34, Heptadecan-9-yl 8-((2-hydroxy-6-(1H-imidazole-4-carboxamido)hexyl)(6-oxo-6-(undecyloxy)hexyl)amino)octanoate] | 0.143 | 117 nm | −1.50 mV | 94% | 6.37E+06 | 3.60E+07 | 1.70E+07 | 1.11E+06 | 7.64E+05 | 2.79E+06 | 2.91 | 0.32 | 94.0% | 116.7 nm | 92.9% | 0.126 | 121.7 nm | 91.4% | 0.079 | 164.4 nm | Normalized EE % D-1 ([3]; fLuc mRNA-LNP stored at 25° C.): 94.0%; PDI D-1 ([3]; fLuc mRNA-LNP stored at 25° C.): 0.143; Size (nm) D-1 ([3]; fLuc mRNA-LNP stored at 25° C.): 116.7 nm; Normalized EE % D-7 ([3]; fLuc mRNA-LNP stored at 25° C.): 90.9%; PDI D-7 ([3]; fLuc mRNA-LNP stored at 25° C.): 0.139; Size (nm) D-7 ([3]; fLuc mRNA-LNP stored at 25° C.): 129.6 nm; Normalized EE % D-30 ([3]; fLuc mRNA-LNP stored at 25° C.): 89.3%; PDI D-30 ([3]; fLuc mRNA-LNP stored at 25° C.): 0.132; Size (nm) D-30 ([3]; fLuc mRNA-LNP stored at 25° C.): 164.4 nm
CCCCCCCCCCCOC(=O)CCCCCN(CCCCCCCC(=O)OC(CCCCCCCC)CCCCCCCC)CC(O)CCCCNC(=O)c1cn(C)cn1 (stereo not shown) [Compound 37, Heptadecan-9-yl 8-((2-hydroxy-6-(1-methyl-1H-imidazole-4-carboxamido)hexyl)(6-oxo-6-(undecyloxy)hexyl)amino)octanoate] | 0.154 | 115 nm | −3.30 mV | 89% | 7.40E+06 | 8.89E+06 | 5.97E+06 | 2.13E+06 | 1.85E+06 | 2.32E+06 | 0.72 | 0.08 | 89.5% | 114.5 nm | 89.9% | 0.155 | 123.7 nm | 90.0% | 0.280 | 138.7 nm | Normalized EE % D-1 ([3]; fLuc mRNA-LNP stored at 25° C.): 89.5%; PDI D-1 ([3]; fLuc mRNA-LNP stored at 25° C.): 0.154; Size (nm) D-1 ([3]; fLuc mRNA-LNP stored at 25° C.): 114.5 nm; Normalized EE % D-7 ([3]; fLuc mRNA-LNP stored at 25° C.): 88.0%; PDI D-7 ([3]; fLuc mRNA-LNP stored at 25° C.): 0.087; Size (nm) D-7 ([3]; fLuc mRNA-LNP stored at 25° C.): 133.6 nm; Normalized EE % D-30 ([3]; fLuc mRNA-LNP stored at 25° C.): 83.8%; PDI D-30 ([3]; fLuc mRNA-LNP stored at 25° C.): 0.126; Size (nm) D-30 ([3]; fLuc mRNA-LNP stored at 25° C.): 135.7 nm
CCCCCCCCCCCOC(=O)CCCCCN(CCCCCCCC(=O)OC(CCCCCCCC)CCCCCCCC)CC(O)CCCCNC(=O)c1cncn1C (stereo not shown) [Compound 38, Heptadecan-9-yl 8-((2-hydroxy-6-(1-methyl-1H-imidazole-5-carboxamido)hexyl)(6-oxo-6-(undecyloxy)hexyl)amino)octanoate] | 0.132 | 142 nm | −4.28 mV | 88% | 2.19E+07 | 4.19E+07 | 1.47E+07 | 7.89E+05 | 5.32E+05 | 2.13E+06 | 3.39 | 0.37 | 88.5% | 142.2 nm | 91.1% | 0.086 | 141.1 nm | 87.6% | 0.086 | 147.3 nm | Normalized EE % D-1 ([3]; fLuc mRNA-LNP stored at 25° C.): 89.5%; PDI D-1 ([3]; fLuc mRNA-LNP stored at 25° C.): 0.132; Size (nm) D-1 ([3]; fLuc mRNA-LNP stored at 25° C.): 142.2 nm; Normalized EE % D-7 ([3]; fLuc mRNA-LNP stored at 25° C.): 88.0%; PDI D-7 ([3]; fLuc mRNA-LNP stored at 25° C.): 0.093; Size (nm) D-7 ([3]; fLuc mRNA-LNP stored at 25° C.): 140.4 nm; Normalized EE % D-30 ([3]; fLuc mRNA-LNP stored at 25° C.): 86.1%; PDI D-30 ([3]; fLuc mRNA-LNP stored at 25° C.): 0.041; Size (nm) D-30 ([3]; fLuc mRNA-LNP stored at 25° C.): 152.0 nm
